From patent US6967196B1, “Sulfonamide compounds and uses thereof” (Bristol-Myers Squibb Company, priority 1999, dated 2005)
Structures can show the parent of a compound that is named as a salt. Where two headings read alike, the source gives them in different places. Each block holds one compound with its values, some of them ahead of it.

System: amyloid β production in transfected H4 (human neuroglioma) cells stably expressing APP constructs
Assay: In vitro cell-based assay of inhibitors of amyloid β production (ELISA)
Conditions: amyloid β in medium by ELISA
Procedure, shortened: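 Test agents are screened at 10-100 μM for about 16 hours on cells stably expressing wild-type or variant APP. Secreted Aβ is measured by ELISA and compared with control-treated cells.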

[1] = Homo sapiens, 16 h, transfected H4 cells stably expressing APP, approx. 16 h incubation, read-out: ACTIVITY (IC50, inhibition of amyloid β production)
[2] = Homo sapiens, 16 h, transfected H4 cells expressing APP, approximately 16 hours incubation, read-out: ACTIVITY (IC50, inhibition of amyloid β production)
[3] = transfected H4 cells stably expressing APP, approximately 16 hours incubation, read-out: ACTIVITY (IC50, inhibition of amyloid β production)
[4] = transfected H4 cells stably expressing APP constructs, approximately 16 hours incubation, read-out: ACTIVITY (IC50, inhibition of amyloid β production)
[5] = transfected H4 cells stably expressing APP, approx. 16 h incubation, read-out: ACTIVITY (IC50, inhibition of amyloid β production)
[6] = transfected H4 cells stably expressing APP, approximately 16 hours incubation, Table B, read-out: ACTIVITY (IC50, inhibition of amyloid β production)
[7] = Homo sapiens, 16 h, transfected H4 cells stably expressing APP, approximately 16 hours incubation, read-out: ACTIVITY (IC50, inhibition of amyloid β production)

IC50 [1]: 100 to 500 nM
Compound: O=C(C1CC1c1ccccc1)N1CCCCC1CCOc1ccccc1CN(c1cc(F)ccc1F)S(=O)(=O)c1ccc(Cl)cc1 (centres unmarked) [Example 780, 4-chloro-N-(2,5-difluorophenyl)-N-[2-(2-{1-[(2-phenylcyclopropyl)carbonyl]-2-piperidinyl}ethoxy)benzyl]benzenesulfonamide]

IC50 [2]: 100 to 500 nM
Compound: C[C@H](C(=O)NCCCCO)N(c1cc(Cl)ccc1F)S(=O)(=O)c1ccc(Cl)cc1 [Example 1360]

IC50 [3]: > 500 nM
Compound: N-{3-[2-(1-{[(4-chlorophenyl)sulfonyl]-2,5-difluoroanilino}ethyl)phenoxy]ethyl}-N-methyl-3,5-bis(trifluoromethyl)benzamide [Example 931]

Compound: C[C@H](CCCN1CCCC(S(C)(=O)=O)C1)N(c1cc(Cl)ccc1Cl)S(=O)(=O)c1ccc(Cl)cc1 (stereo partly drawn) [Example 1108, 4-chloro-N-(2,5-dichlorophenyl)-N-[4-[(3-methylsulfonyl)-1-piperidinyl]-1(R)-methylbutyl]benzenesulfonamide]
IC50 [4]: ≤ 25 nM

Compound: 4-chloro-N-(2,5-difluorophenyl)-N-[(1R)-1-(4-[(ethylsulfonyl)amino]butyl}-4-fluorophenyl)ethyl]benzenesulfonamide [Example 1075]
IC50 [3]: > 500 nM

IC50 [5]: 100 to 500 nM
Compound: 2-((1R)-1-{[(4-chlorophenyl)sulfonyl]-2,5-difluoroanilino}ethyl)-5-fluorobenzyl 3-fluorobenzylcarbamate [Example 764]

IC50 [6]: 100 to 500 nM
Compound: COC(=O)C[S+]([O-])CCc1cc(F)ccc1[C@@H](C)N(c1cc(F)ccc1F)S(=O)(=O)c1ccc(Cl)cc1 (stereo partly drawn) [Example 476, Methyl ({2-[2-((1R)-1-{[(4-chlorophenyl)sulfonyl]-2,5-difluoroanilino}ethyl)-5-fluorophenyl]ethyl}sulfinyl)acetate]

IC50 [5]: 100 to 500 nM
Compound: N-{3-[2-({[(4-chlorophenyl)sulfonyl]-2,5-difluoroanilino}methyl)phenoxy]propyl}-N-methylbenzamide [Example 800]

IC50 [5]: 100 to 500 nM
Compound: 2-((1R)-1-{[(4-chlorophenyl)sulfonyl]-2,5-difluoroanilino}ethyl)benzyl 2-(diethylamino)ethylcarbamate [Example 662]

IC50 [2]: > 500 nM
Compound: C[C@H](C(=O)NC1CCC(C(C)(C)C)CC1)N(c1cc(Cl)ccc1F)S(=O)(=O)c1ccc(Cl)cc1 (some centres unmarked) [Example 1316]

Compound: C[C@H](COC(=O)NCCCn1ccnc1)N(c1cc(Cl)ccc1F)S(=O)(=O)c1ccc(Cl)cc1 [Example 1244, 4-Chloro-N-(2-fluoro-5-chlorophenyl)-N-[2-[[N′-[3-(1H-imidazol-1-yl)propylamino]carbonyl]oxy]-(R)-1-methylethyl]benzenesulfonamide]
IC50 [4]: ≤ 25 nM

Compound: (R)-4-Chloro-N-(2,5-difluorophenyl)-N-[1-[4-fluoro-2-[1-(1,1-dioxo-2-methyl-4-thiomorpholinyl)butanoyl]phenyl]ethyl]benzenesulfonamide [Example 1277]
IC50 [4]: ≤ 25 nM

IC50 [2]: ≤ 25 nM
Compound: CC(CCOC(=O)NCCn1ccnc1)N(c1cc(Cl)ccc1CO)S(=O)(=O)c1ccc(Cl)cc1 (centres unmarked) [Example 1291]

IC50 [2]: 100 to 500 nM
Compound: CC(C(=O)N[C@@H]1C[C@H]2CC[C@@H]1CC2)N(c1cc(Cl)ccc1F)S(=O)(=O)c1ccc(Cl)cc1 (some centres unmarked) [Example 1358]

IC50 [6]: 50 to 100 nM
Compound: CONC(=O)COc1ccccc1C(C)N(c1cc(F)ccc1F)S(=O)(=O)c1ccc(Cl)cc1 (centres unmarked) [Example 382, [2-(1-{[(4-Chlorophenyl)sulfonyl]-2,5-difluoroanilino}ethyl)phenoxy]-N-methoxyacetamide]

Compound: C=C(C)CN(Cc1ccccc1OCCCN1CCCCC1)S(=O)(=O)c1ccc(Cl)cc1 [Example 955, 4-chloro-N-(2-methyl-2-propenyl)-N-{2-[3-(1-piperidinyl)propoxy]benzyl}benzenesulfonamide hydrochoride]
IC50 [3]: > 500 nM

IC50 [2]: 100 to 500 nM
Compound: C[C@H](C(=O)NCCCCCCO)N(c1cc(Cl)ccc1F)S(=O)(=O)c1ccc(Cl)cc1 [Example 1350]

IC50 [3]: > 500 nM
Compound: (2R)-2-{[(4-chlorophenyl)sulfonyl]-2,5-difluoroanilino}propyl nicotinate [Example 1058]

IC50 [3]: 100 to 500 nM
Compound: N-{2-[2-(1-{[(4-chlorophenyl)sulfonyl]-2,5-difluoroanilino}ethyl)phenoxy]ethyl}-3-cyclopentyl-N-ethylpropanamide [Example 857]

IC50 [1]: 100 to 500 nM
Compound: O=S(=O)(c1ccc(Cl)cc1)N(Cc1ccccc1OCCCN1CCCCC1)c1ccc(Cl)cc1Cl [Example 706, 4-chloro-N-(2,4-dichlorophenyl)-N-{2-[3-(1-piperidinyl)propoxy]benzyl}benzenesulfonamide hydrochloride]

IC50 [6]: 50 to 100 nM
Compound: CONC(=O)CCCOc1ccccc1C(C)N(c1cc(F)ccc1F)S(=O)(=O)c1ccc(Cl)cc1 (centres unmarked) [Example 379, 4-[2-(1-{[(4-Chlorophenyl)sulfonyl]-2,5-difluoroanilino}ethyl)phenoxy]-N-methoxybutanamide]

IC50 [7]: 100 to 500 nM
Compound: O=S(=O)(c1ccc(Cl)cc1)N(Cc1ccccc1OCCCN1CCCCC1)c1ccccc1Br [Example 866, N-(2-bromophenyl)-4-chloro-N-{2-[3-(1-piperidinyl)propoxy]benzyl}benzenesulfonamide hydrochloride]

IC50 [5]: 100 to 500 nM
Compound: N-{3-[2-(1-{[(4-chlorophenyl)sulfonyl]-2,5-difluoroanilino}ethyl)phenoxy]propyl}-2,5-bis(trifluoromethyl)benzamide [Example 736]

IC50 [7]: > 500 nM
Compound: CSCCCc1cc(F)ccc1[C@@H](C)N(c1cc(F)ccc1F)S(=O)(=O)c1ccc(SC)cc1 [Example 912, N-(2,5-difluorophenyl)-N-((1R)-1-{4-fluoro-2-[3-(methylsulfanyl)propyl]phenyl}ethyl)-4-(methylsulfanyl)benzenesulfonamide]

IC50 (Table B, transfected H4 cells stably expressing APP, approximately 16 hours incubation, read-out: ACTIVITY (inhibitory concentration IC50, inhibition of amyloid β production)): 25 to 50 nM
Compound: C[C@H](CCS(=O)(=O)CC(=O)O)N(c1cc(Cl)ccc1Cl)S(=O)(=O)c1ccc(Cl)cc1 [Example 183, (6R)-6-[(2,5-dichlorophenyl)[(4-chlorophenyl)sulfonyl]amino]-3-thioheptanoic Acid, 3,3 Dioxide]

IC50 [1]: 100 to 500 nM
Compound: CC(C)NC(=O)N(C)CCCOc1ccccc1CN(c1cc(F)ccc1F)S(=O)(=O)c1ccc(Cl)cc1 [Example 734, 4-chloro-N-(2,5-difluorophenyl)-N-(2-{3-[[(isopropylamino)carbonyl](methyl)amino]propoxy}benzyl)benzenesulfonamide]

IC50 [3]: > 500 nM
Compound: 2-((1R)-1-{[(4-chlorophenyl)sulfonyl]-2,5-difluoroanilino}ethyl)benzyl 3-fluorobenzylcarbamate [Example 910]

Compound: CC(C)[S+]([O-])CCC[C@@H](C)N(c1cc(Cl)ccc1CO)S(=O)(=O)c1ccc(Cl)cc1 (some centres unmarked) [Example 1219]
IC50 [4]: ≤ 25 nM

IC50 [5]: 100 to 500 nM
Compound: 3-[2-((1R)-1-{[(4-chlorophenyl)sulfonyl]-2,5-difluoroanilino}ethyl)phenyl]-N-isopropylpropanamide [Example 655]

Compound: C[C@H](c1ccc(CCCCNS(C)(=O)=O)cc1)N(c1cc(F)ccc1F)S(=O)(=O)c1ccc(Cl)cc1 [Example 1074]
IC50 [3]: > 500 nM

IC50 [2]: > 500 nM
Compound: CC1CCCCN1CCCNC(=O)[C@@H](C)N(c1cc(Cl)ccc1F)S(=O)(=O)c1ccc(Cl)cc1 (some centres unmarked) [Example 1340]

Compound: CC(C)N(CCCn1ccnc1)C(=O)OC[C@@H](C)N(c1cc(Cl)ccc1CO)S(=O)(=O)c1ccc(Cl)cc1 [Example 1252, 4-Chloro-N-[5-chloro-2-(hydroxymethyl)phenyl]-N-[2-[[[N′-[3-(1H-imidazol-1-yl)propyl]-N′-(2-methylethyl)amino]carbonyl]oxy]-(R)-1-methylethyl]benzenesulfonamide]
IC50 [4]: ≤ 25 nM

IC50 [5]: 100 to 500 nM
Compound: N-{3-[2-(1-{[(4-chlorophenyl)sulfonyl]-2,5-difluoroanilino}ethyl)phenoxy]propyl}-2,3,4,5,6-pentafluorobenzamide [Example 742]

IC50 [2]: > 500 nM
Compound: C[C@H](C(=O)NCCc1ccc(Cl)cc1Cl)N(c1cc(Cl)ccc1F)S(=O)(=O)c1ccc(Cl)cc1 [Example 1305]

IC50 [7]: > 500 nM
Compound: O=S(=O)(c1ccc(Cl)cc1)N(Cc1ccccc1OCCCCCCl)c1ccccc1 [Example 1026, 4-chloro-N-{2-[(5-chloropentyl)oxy]benzyl}-N-phenylbenzenesulfonamide]

Compound: C[C@H](CCCNC(=O)[C@H](O)c1ccccc1)N(c1cc(Cl)ccc1Cl)S(=O)(=O)c1ccc(Cl)cc1 [Example 1129]
IC50 [4]: 50 to 100 nM

Compound: (2S)-2-[[2-((1R)-1-{[(4-chlorophenyl)sulfonyl]-2,5-difluoroanilino}ethyl)benzyl](methyl)amino]propanoic acid hydrochloride [Example 659]
IC50 [5]: 100 to 500 nM

IC50 [6]: 50 to 100 nM
Compound: C[C@H](c1ccc(F)cc1CS(=O)(=O)CCC(=O)O)N(c1cc(F)ccc1F)S(=O)(=O)c1ccc(Cl)cc1 [Example 467, 3-{[2-((1R)-1-{[(4-chlorophenyl)sulfonyl]-2,5-difluoroanilino}ethyl)-5-fluorobenzyl]sulfonyl}propanoic Acid]
